{"source": "patent US20150250883A1", "about": "“COMPOSITIONS AND METHODS TO IMPROVE THE HOMING AND GRAFTING OF HEMATOPOETIC STEM CELLS” (7 HILLS PHARMA, LLC, priority 2014, published 2015)", "key": {"[1]": {"system": "Jurkat cells (integrin expressing) adhering to immobilized CS1-BSA", "assay": "Static adhesion of integrin expressing cells to an immobilized integrin ligand", "format": "cell-based", "experimental": "The effective concentration of a representative agonist compound, THI0019, in a cell carrier was evaluated by a static adhesion of integrin expressing cells to an immobilized integrin ligand in vitro, as described below.\nThe effective concentration of THI0019, a representative agonist compound used in this example, was evaluated by a static adhesion of integrin expressing cells to an immobilized integrin ligand. The 25 amino acid alternatively spliced sequence of fibronectin named connecting segment 1 (CS1) was synthesized and conjugated to BSA. CS1-BSA at 0.3 μg/mL in 50 μL of a representative cell carrier was added to wells of a 96-well plate and allowed to coat overnight at 4° C. The representative cell carrier is isotonic Tris Buffered Saline comprising 50 mM Tris-HCl (pH 7.4), 150 mM NaCl and 1 mM MgCl2 and is a model isotonic buffer. Plates were washed with the cell carrier and blocked with 2 wt. % BSA for 1 h. 32×10^6 of Jurkat cells were labeled for 30 minutes with calcein-AM (Molecular Probes), washed 2 times with the cell carrier, resuspended in 8 mL of the cell carrier, and divided equally between two tubes. One tube of the cell suspension was treated with 40 μL DMSO (control) and the other with 40 μL of 1 mM THI0019 in DMSO. The control containing tube and the THI0019 containing tube were each further divided equally among four eppendorf tubes (Tubes 1-4 for each group) such that each contained 4×10^6 of the cells in 1 mL of the control or the THI0019 containing cell carrier. Tube 1 from each group was not further processed (“no treatment”). Tubes 2-4 were centrifuged at 100×G for 5 min at RT. The supernatant was carefully removed with a pipet and each cell pellet was resuspended in 1 mL of the cell carrier without the agonist compound. Tube 2 was not further processed (“pellet”). Tubes 3-4 were again centrifuged at 100×G for 5 min. The supernatant was carefully removed with a pipet and each cell pellet was resuspended in 1 mL of the cell carrier without the agonist compound. Tube 3 was not further processed (“1 wash”). Tube 4 was again centrifuged at 100×G for 5 min. The supernatant was carefully removed with a pipet and the cell pellet was resuspended in 1 mL of the cell carrier without the agonist compound. Tube 4 was not further processed (“2 wash”). The final concentrations of THI0019 in the respective cell carriers for no treatment, pellet, 1 wash, and 2 wash were 10 μM, […]. […] After 30-minute incubation at 37° C., the plates were washed 3 times with binding cell carrier, the adherent cells were lysed, and fluorescence was measured on a Tecan Safire plate reader. The number of cells bound was determined by standard curves correlating fluorescence to cell number generated with the same mixtures used for the assay."}, "[2]": {"system": "TF-1 cells on immobilized recombinant human VCAM-1", "conditions": "interpretation of cited detachment assay data; cited from earlier work"}, "[3]": {"conditions": "static adhesion, FIG. 1, printed as 'at least 1 femtomolar (fM) to 1 μM'"}}}
{"smiles": "CCCC[C@@H](COC(=O)N(Cc1cccs1)Cc1cccs1)NC(=O)N[C@@H](CC(=O)OC)c1ccc2c(c1)OCO2", "note": "[THI0019, methyl (6S,10S)-10-(1,3-benzodioxol-5-yl)-6-butyl-3,8-dioxo-1-(2-thienyl)-2-(2-thienylmethyl)-4-oxa-2,7,9-triazadodecan-12-oate]", "values": [{"measurement": "ability of agonist treated cells to bind to a cognate ligand after exposure", "setting": "[1]; after exposure to the agonist in cell carrier", "value": "enhanced ability to bind to a cognate ligand within minutes"}, {"measurement": "adhesion potential of cells after dilution/washing of compound from cell carrier", "setting": "[1]; compound reduced by multiple 1000-fold serial dilutions to as low as 1 fM in cell carrier", "value": "retained the ability to exhibit enhanced adhesion potential"}, {"measurement": "effective amount of the agonist compound present in the cell carrier, lower end of range", "setting": "[1]; [3]", "value": 1, "unit": "fM"}, {"measurement": "effective amount of the agonist compound present in the cell carrier, upper end of range", "setting": "[1]; [3]", "value": 1, "unit": "µM"}, {"measurement": "effect on VCAM-1 / VLA-4 interaction (applicant's reading of Vanderslice data)", "setting": "[2]", "value": "stabilizes the VCAM-1 and VLA-4 interaction and upon endogenous ligand binding, the compound is displaced"}]}
